Source: patent US9012493B2, “1-heterodiene derivative and pest control agent” (Nippon Soda Co., Ltd., priority 2009, dated 2015)

Tests used:
Format in all cases: in vivo
[1] = tested on: Rice Armyworm (Mythimna Separata); experiment: Efficacy test against rice armyworm, corn leaf dip; details: 125 ppm, emulsifiable concentrate diluted with water, corn leaves immersed, second instar larvae, after 5 days, 25° C.
Description: (§1) Test Examples of the pest control agent thus obtained according to the present invention are shown below. In respective Test Examples, the insecticidal rate (%) was determined by the following calculation equation. Insecticidal rate (%)=(number of dead pests/number of released pests)×100
The emulsifiable concentrate obtained according to Formulation of Formulation Example 2 was diluted with water so as to control the concentration of the compound to 125 ppm. Leaves of corn were immersed in this diluted solution for 30 seconds and then air-dried. The leaves were put in a petri dish on which a filter paper is laid, and then five second instar larvae of rice armyworm were inoculated. After covering the petri dish with a glass lid, the petri dish was placed in a temperature-controlled room at a temperature of 25° C. and a humidity of 65%. After 5 days, life and death were examined and the insecticidal rate was determined. The test was repeated twice.

[2] = tested on: Cotton Aphid (Aphis Gossypii); experiment: Efficacy test against cotton aphid, spray on cucumber plant; details: 125 ppm, emulsifiable concentrate diluted with water, sprayed over cucumber plant with nymphs, after 5 days, 25° C.
Description: as §1
The emulsifiable concentrate obtained according to Formulation of Formulation Example 2 was diluted with water so as to control the concentration of the compound to 125 ppm. Adults of cotton aphids were inoculated to a cucumber plant (approximately 10 days after sprouting) sown in a 3 sun/size pot (9 cm). After 1 day, adult aphids were removed and the diluted solution was sprayed over the cucumber plant on which delivered nymphs are parasitic. The pot was placed in a temperature-controlled room at a temperature of 25° C. and a humidity of 65%. After 5 days, life and death were examined and the insecticidal rate was determined. The test was repeated twice.

[3] = tested on: Sweetpotato Whitefly (Bemisia Tabaci); experiment: Efficacy test against sweetpotato whitefly, sprayed tomato leaf; details: 125 ppm, emulsifiable concentrate diluted with water, adults (type B), after 2 days, 25° C.
Description: as §1
The emulsifiable concentrate obtained according to Formulation of Formulation Example 2 was diluted with water so as to control the concentration of the compound to 125 ppm. The diluted solution was sprayed over a tomato leaf obtained by cutting and then air-dried. Using absorbent cotton, the leaf was fixed to a flask so that a front surface of the leaf faces upward. Seven pairs of adults of sweetpotato whitefly (type B) were inoculated in this container, and the container was placed in a temperature-controlled room at a temperature of 25° C. and a humidity of 65%. After 2 days, life and death were examined and the insecticidal rate was determined. The test was repeated twice.

SMILES	insecticidal rate [1] [%]	insecticidal rate [2] [%]	insecticidal rate [3] [%]
C=C1SC(=Nc2ccc3c(c2)OCO3)C(=CSc2ccccc2)CC1(C)C [Compound 2-39]	100	100	100
C=C1SC(=Nc2ccc(OC)cc2C)C(=CSc2ccc(OC)cc2)CC1(C)C [Compound 2-42]	100	100	100
COc1ccc(N=C2SC(=C(C)C)CCC2=CSc2ncccn2)cc1 [Compound 2-43]	100		
C=C1SC(=Nc2cc(Cl)ccc2Cl)C(=CSc2ccccc2)CC1(C)C [Compound 2-44]	100		100
C=C1SC(=Nc2ccc(OC)cc2)C(=CSc2ncccn2)CC1(C)C [Compound 2-47]	100	100	100
C=C1CCC(=CSc2ccccc2)C(=Nc2ccsc2)S1 [Compound 2-52]	100	100	100
C=C1SC(=Nc2ccccc2)C(=CSc2ccccc2)CC1(C)C [Compound 2-53]	100	100	100
C=C1SC(=Nc2ccccc2)C(=CSc2ccc(F)cc2)CC1(C)C [Compound 2-54]	100	100	100
C=C1SC(=Nc2ccc(OC)cc2)C(=COc2ccccc2)CC1(C)C [Compound 2-55]	100	100	100
C=C1SC(=Nc2ccc(C)cc2)C(=CSc2ccc(F)cc2)CC12CCOCC2 [Compound 2-57]	100	100	100
C=C1SC(=Nc2ccc(OC)cc2)C(=CSC2CCCC2)CC1(C)C [Compound 2-58]	100	100	100
C=C1SC(=Nc2c(C)cccc2C)C(=CSc2ccccc2)CC1(C)C [Compound 2-62]	100	100	100
C=C1SC(=Nc2ccc(C)cc2)C(=CSC(C)(C)C)CC1(C)C [Compound 2-74]	100		100
C=C1SC(=Nc2ccc(OC)cc2)C(=CSc2ccc(C=O)cc2)CC1(C)C [Compound 2-82]	100		
C=C1SC(=Nc2ccc(OC)cc2)C(=CSc2ccc(C(F)(F)F)cn2)CC1(C)C [Compound 2-95]	100		100
C=C1SC(=Nc2ccc(C)cc2)C(=CSc2ccccc2CO)CC1(C)C [Compound 2-96]	100		
C=C1SC(=Nc2ccc(OC)cc2)C(=CSc2cccc(Oc3ccccc3)c2)CC1(C)C [Compound 2-109]			100
C=C1SC(=Nc2ccc(C)cc2)C(=CSc2sccc2OC)CC1(C)C [Compound 2-116]	100		100
C=C1SC(=Nc2ccc(C)cc2)C(=CSc2cc(C)oc2C)CC1(C)C [Compound 2-123]	100		100
C=C1SC(=Nc2ccc(C)cc2)C(=CSc2cc(C(F)(F)F)ccn2)CC1(C)C [Compound 2-126]	100	100	
C=C1SC(=Nc2ccccc2)C(=CSc2nc(C)cnc2C)CC1(C)C [Compound 2-131]	100		100
C=C1SC(=Nc2ccc(C)cc2)C(=CSc2nccc(OC)n2)CC1(C)C [Compound 2-133]	100		100
C=C1CCC(=CSc2ccccn2)C(=Nc2ccc(C)cc2)S1 [Compound 4-1]	100		
C=C1SC(=Nc2ccc(OC)cc2)C(=CSc2ccccn2)CC1(C)C [Compound 4-2]	100		
C=C1SC(=Nc2ccc(C)cc2)C(=CSc2nccs2)CC1(C)C [Compound 4-3]			100
C=C1SC(=Nc2ccc(OC)cc2)C(=CSc2cccs2)CC1(C)C [Compound 4-4]	100		100
